# Values of other authors, collected in patent publication US5594100A, “Epitope for prevention of type I diabetes” (Regents of the University of Colorado, priority 1995, dated 1997).
# Tested on: islet-specific T cell lines and clones from islet-infiltrating lymphocytes
# Conditions: panel of nominally islet-specific lines and clones from female NOD mice
substance,measurement,value
porcine insulin: Porcine insulin (Sigma) used for testing specificity of insulin-specific T cell lines and clones,T cell lines and clones responding to porcine insulin,22 of 40
same,percent of T cell lines and clones responding to porcine insulin,55%
